# Test results as given in US20120034193A1, “TREATMENT OF NEUROTROPHIC FACTOR MEDIATED DISORDERS” (priority 2009, published 2012).
# Columns and labels:
# Oestrogen = test: Receptor binding assay; parameters: species or system Bovine; settings: sarsasapogenin 10 μM
# Procedure: (§1) The receptor binding was investigated using the following method: Sarsasapogenin was incubated with tissue or cell homogenate that expressed the receptor of interest and a known concentration a radiolabelled compound with affinity for the receptor of interest. After the incubation period the non-bound radiolabelled compound was removed and the amount of specific binding was quantified. The amount of specific binding in the presence and absence of sarsasapogenin were compared and the percent inhibition of the binding of the radiolabelled compound by sarsasapogenin was calculated. The source of the receptor, the incubation conditions, the radiolabelled compound used varied depending on each specific assay.
# Progesterone = test: Receptor binding assay; parameters: species or system Bovine; settings: sarsasapogenin 10 μM
# Procedure: as §1
# [1] = target: Protein Serine/Threonine Kinase, MAP2K1 (MEK1 ) (Homo sapiens, UniProt Q02750); test: Functional assay; assay type: biochemical; settings: smilagenin 1 μM
# Sequence of Protein Serine/Threonine Kinase, MAP2K1 (MEK1 ) (Q02750 whole entry): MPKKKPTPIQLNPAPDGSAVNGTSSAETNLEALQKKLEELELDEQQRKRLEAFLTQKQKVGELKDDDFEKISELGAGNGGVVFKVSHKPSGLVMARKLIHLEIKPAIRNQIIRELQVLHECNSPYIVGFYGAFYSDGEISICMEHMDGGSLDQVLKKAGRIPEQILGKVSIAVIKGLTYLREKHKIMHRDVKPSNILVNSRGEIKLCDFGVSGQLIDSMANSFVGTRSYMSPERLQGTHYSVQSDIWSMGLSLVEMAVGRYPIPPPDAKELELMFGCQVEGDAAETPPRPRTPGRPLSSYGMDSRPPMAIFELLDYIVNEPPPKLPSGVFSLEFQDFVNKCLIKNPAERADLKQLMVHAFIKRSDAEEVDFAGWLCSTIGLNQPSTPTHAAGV
# Procedure: (§2) The enzyme activity modulation was investigated using the following method: Sarsasapogenin was incubated with each enzyme plus a specific substrate for each enzyme. After the incubation period the reaction was stopped and the reduction of the specific substrate or the increase in a specific product in the absence and presence of sarsasapogenin was measured and the percent inhibition of the reaction in the presence of sarsasapogenin was calculated. The amount of enzyme used, the incubation conditions, the substrate used and the method of quantification varied depending on each specific assay.
# (§3) Using the same methods as described above, the binding of smilagenin (1 μM) to the receptors listed in Table 2 below, and the effect of smilagenin on the activity of the enzymes listed in Table 2 below, were investigated.
# [2] = target: Protein Serine/Threonine Kinase, MAPK11 (p38β) (Homo sapiens, UniProt Q15759); test: Functional assay; assay type: biochemical; settings: smilagenin 1 μM
# Procedure: as §2, §3
# Functional assay = assay type: biochemical; settings: smilagenin 1 μM
# Procedure: as §2, §3
# [3] = target: Protein Serine/Threonine Kinase, MAPK12 (p38γ) (Homo sapiens, UniProt P53778); test: Functional assay; assay type: biochemical; settings: smilagenin 1 μM
# Sequence of Protein Serine/Threonine Kinase, MAPK12 (p38γ) (P53778 whole entry): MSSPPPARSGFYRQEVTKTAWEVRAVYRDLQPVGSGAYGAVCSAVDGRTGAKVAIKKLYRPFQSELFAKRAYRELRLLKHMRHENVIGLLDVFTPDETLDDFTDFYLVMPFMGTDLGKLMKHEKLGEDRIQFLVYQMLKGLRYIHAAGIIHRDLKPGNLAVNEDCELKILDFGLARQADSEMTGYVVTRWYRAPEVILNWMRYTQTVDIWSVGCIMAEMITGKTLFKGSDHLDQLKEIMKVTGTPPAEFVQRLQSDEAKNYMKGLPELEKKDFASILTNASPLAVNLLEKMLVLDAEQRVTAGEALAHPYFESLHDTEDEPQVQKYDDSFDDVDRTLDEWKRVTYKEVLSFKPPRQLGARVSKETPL
# Procedure: as §2, §3
# [4] = target: Protein Serine/Threonine Kinase, AKT1 (PRKBA) (Homo sapiens, UniProt P31749); test: Functional assay; assay type: biochemical; settings: smilagenin 1 μM
# Sequence of Protein Serine/Threonine Kinase, AKT1 (PRKBA) (P31749 whole entry): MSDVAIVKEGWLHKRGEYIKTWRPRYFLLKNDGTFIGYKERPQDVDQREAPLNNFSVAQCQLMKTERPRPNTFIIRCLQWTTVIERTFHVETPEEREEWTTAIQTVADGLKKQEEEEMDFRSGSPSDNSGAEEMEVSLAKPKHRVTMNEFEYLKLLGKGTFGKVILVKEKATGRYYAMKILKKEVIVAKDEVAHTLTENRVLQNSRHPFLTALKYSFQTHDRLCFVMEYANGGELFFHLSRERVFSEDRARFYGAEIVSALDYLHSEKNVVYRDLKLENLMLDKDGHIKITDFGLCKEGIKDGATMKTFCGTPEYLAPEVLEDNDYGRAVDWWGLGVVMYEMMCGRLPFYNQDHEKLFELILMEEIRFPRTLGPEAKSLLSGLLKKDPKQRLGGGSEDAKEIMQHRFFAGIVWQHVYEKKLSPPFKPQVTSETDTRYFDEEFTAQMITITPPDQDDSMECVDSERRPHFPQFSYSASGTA
# Procedure: as §2, §3
# [5] = target: Protein Tyrosine Kinase, NTRK1 (trkA) (Homo sapiens, UniProt P04629); test: Functional assay; assay type: biochemical; settings: smilagenin 1 μM
# Procedure: as §2, §3
# [6] = target: Protein Serine/Threonine Kinase, MAPK8 (JNK1) (Homo sapiens, UniProt P45983); test: Functional assay; assay type: biochemical; settings: smilagenin 1 μM
# Sequence of Protein Serine/Threonine Kinase, MAPK8 (JNK1) (P45983 whole entry): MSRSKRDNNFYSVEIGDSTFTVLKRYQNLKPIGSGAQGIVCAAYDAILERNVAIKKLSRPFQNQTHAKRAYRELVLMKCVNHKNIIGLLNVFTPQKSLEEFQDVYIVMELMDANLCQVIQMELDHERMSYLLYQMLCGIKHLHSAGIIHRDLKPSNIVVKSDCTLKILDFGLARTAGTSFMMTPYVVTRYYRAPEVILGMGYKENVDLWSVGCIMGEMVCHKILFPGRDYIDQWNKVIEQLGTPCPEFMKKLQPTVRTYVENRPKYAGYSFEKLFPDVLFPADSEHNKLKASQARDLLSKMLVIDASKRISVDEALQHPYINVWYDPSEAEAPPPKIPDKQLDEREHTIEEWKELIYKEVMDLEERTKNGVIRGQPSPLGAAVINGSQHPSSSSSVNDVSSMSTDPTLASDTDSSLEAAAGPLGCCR
# Procedure: as §2, §3
# [7] = target: UDP Glucuronosyltransferase, UGT1A1 (Homo sapiens, UniProt P22309); test: Functional assay; assay type: biochemical; settings: smilagenin 1 μM
# Sequence of UDP Glucuronosyltransferase, UGT1A1 (P22309 26-533): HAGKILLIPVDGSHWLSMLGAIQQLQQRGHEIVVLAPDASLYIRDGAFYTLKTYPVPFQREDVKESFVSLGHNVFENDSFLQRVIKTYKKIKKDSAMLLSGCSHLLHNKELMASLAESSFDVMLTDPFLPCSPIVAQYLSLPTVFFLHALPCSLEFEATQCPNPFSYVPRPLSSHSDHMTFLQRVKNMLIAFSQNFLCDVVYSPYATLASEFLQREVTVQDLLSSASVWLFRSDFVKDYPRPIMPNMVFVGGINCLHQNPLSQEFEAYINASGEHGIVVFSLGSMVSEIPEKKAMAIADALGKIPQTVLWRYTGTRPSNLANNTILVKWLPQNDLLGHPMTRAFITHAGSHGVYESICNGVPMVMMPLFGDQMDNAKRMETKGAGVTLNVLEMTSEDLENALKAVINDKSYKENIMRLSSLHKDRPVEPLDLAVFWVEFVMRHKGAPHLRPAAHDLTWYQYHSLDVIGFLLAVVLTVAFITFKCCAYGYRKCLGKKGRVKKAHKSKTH
# Procedure: as §2, §3
# [8] = target: Protein Serine/Threonine Kinase, AKT3 (PRKBG) (Homo sapiens, UniProt Q9Y243); test: Functional assay; assay type: biochemical; settings: smilagenin 1 μM
# Procedure: as §2, §3
# [9] = target: Protein Serine/Threonine Kinase, MAPK3 (ERK1) (Homo sapiens, UniProt P27361); test: Functional assay; assay type: biochemical; settings: smilagenin 1 μM
# Sequence of Protein Serine/Threonine Kinase, MAPK3 (ERK1) (P27361 whole entry): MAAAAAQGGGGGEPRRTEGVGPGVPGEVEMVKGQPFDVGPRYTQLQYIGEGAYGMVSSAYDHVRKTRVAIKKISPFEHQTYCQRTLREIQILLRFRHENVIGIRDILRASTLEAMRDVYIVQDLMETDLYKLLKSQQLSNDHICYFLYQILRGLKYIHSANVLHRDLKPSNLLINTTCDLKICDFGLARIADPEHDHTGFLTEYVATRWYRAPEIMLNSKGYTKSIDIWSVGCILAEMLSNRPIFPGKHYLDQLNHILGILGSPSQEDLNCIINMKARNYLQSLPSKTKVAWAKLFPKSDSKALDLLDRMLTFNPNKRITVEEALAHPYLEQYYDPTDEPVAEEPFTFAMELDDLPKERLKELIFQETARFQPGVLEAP
# Procedure: as §2, §3
# [10] = target: Protein Serine/Threonine Kinase, CAMK2D (KCC2D) (Homo sapiens, UniProt Q13557); test: Functional assay; assay type: biochemical; settings: smilagenin 1 μM
# Sequence of Protein Serine/Threonine Kinase, CAMK2D (KCC2D) (Q13557 whole entry): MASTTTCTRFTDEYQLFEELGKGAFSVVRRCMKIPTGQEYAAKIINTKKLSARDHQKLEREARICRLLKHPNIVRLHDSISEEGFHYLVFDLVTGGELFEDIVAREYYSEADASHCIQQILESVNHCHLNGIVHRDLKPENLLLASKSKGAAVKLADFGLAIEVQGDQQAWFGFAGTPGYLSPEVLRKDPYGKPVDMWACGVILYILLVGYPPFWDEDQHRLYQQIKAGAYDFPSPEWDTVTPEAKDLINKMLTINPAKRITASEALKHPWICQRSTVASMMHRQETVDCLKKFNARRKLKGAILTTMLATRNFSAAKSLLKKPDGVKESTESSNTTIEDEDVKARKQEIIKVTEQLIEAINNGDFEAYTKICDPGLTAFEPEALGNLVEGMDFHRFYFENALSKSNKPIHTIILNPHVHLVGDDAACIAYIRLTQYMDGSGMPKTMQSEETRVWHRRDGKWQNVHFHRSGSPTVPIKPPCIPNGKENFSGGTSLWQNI
# Procedure: as §2, §3
# [11] = target: Protein Tyrosine Kinase, SRC (Homo sapiens, UniProt P12931); test: Functional assay; assay type: biochemical; settings: smilagenin 1 μM
# Sequence of Protein Tyrosine Kinase, SRC (P12931 whole entry): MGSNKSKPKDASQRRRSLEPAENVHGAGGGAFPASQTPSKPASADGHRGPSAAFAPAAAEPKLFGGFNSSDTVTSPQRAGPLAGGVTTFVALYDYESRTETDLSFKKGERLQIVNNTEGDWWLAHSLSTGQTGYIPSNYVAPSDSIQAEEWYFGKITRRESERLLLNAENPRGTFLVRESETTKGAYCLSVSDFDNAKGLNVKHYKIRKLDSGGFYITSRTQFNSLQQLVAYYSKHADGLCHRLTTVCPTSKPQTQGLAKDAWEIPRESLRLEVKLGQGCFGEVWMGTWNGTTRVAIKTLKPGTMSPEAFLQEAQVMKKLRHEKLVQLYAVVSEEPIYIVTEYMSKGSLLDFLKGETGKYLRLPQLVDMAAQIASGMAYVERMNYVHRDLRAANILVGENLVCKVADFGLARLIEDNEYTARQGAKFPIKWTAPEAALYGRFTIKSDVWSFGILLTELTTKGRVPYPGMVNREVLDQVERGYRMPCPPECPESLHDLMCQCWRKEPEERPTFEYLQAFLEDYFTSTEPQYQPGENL
# Procedure: as §2, §3
# [12] = target: Protein Tyrosine Kinase, NTRK2 (trkB) (Homo sapiens, UniProt Q16620); test: Functional assay; assay type: biochemical; settings: smilagenin 1 μM
# Sequence of Protein Tyrosine Kinase, NTRK2 (trkB) (Q16620 32-822): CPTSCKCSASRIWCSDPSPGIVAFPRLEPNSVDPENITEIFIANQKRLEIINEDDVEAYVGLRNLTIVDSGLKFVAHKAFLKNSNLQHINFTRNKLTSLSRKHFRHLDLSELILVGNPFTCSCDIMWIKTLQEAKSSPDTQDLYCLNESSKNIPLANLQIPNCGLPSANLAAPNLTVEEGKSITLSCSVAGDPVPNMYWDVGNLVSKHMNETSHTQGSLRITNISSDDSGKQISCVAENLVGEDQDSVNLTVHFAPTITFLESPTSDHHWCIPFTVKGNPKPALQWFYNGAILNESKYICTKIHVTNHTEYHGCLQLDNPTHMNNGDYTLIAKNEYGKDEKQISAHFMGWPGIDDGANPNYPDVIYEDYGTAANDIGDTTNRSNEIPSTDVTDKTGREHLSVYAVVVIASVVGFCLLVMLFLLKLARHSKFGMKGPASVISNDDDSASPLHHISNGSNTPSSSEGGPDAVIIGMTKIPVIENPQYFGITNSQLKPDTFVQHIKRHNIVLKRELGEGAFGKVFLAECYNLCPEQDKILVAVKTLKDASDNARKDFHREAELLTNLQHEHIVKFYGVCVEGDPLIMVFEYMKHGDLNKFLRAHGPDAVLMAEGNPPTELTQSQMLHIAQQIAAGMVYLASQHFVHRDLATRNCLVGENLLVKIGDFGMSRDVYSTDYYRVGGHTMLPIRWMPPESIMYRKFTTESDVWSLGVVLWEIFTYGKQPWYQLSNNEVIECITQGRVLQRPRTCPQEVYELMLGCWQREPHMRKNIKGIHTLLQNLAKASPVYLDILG
# Procedure: as §2, §3
# Aldose reductase = Aldose reductase (Rattus norvegicus, UniProt P07943); test: Functional assay; assay type: biochemical; settings: smilagenin 1 μM
# Procedure: as §2, §3
# [13] = target: Protein Serine/Threonine Kinase, MAPK13 (p38δ) (Homo sapiens, UniProt O15264); test: Functional assay; assay type: biochemical; settings: smilagenin 1 μM
# Sequence of Protein Serine/Threonine Kinase, MAPK13 (p38δ) (O15264 whole entry): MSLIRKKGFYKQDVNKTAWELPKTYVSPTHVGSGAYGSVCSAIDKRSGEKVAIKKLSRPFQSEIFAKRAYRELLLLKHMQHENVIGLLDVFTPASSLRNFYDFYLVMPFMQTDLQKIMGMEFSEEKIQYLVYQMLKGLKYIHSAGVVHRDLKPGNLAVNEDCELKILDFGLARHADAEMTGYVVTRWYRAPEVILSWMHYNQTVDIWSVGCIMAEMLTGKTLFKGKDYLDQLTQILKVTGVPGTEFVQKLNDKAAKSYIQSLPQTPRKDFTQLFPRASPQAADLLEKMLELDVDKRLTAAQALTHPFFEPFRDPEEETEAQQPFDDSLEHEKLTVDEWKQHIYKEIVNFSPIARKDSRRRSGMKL
# Procedure: as §2, §3
# [14] = target: Protein Serine/Threonine Kinase, MAPK1 (ERK2) (Homo sapiens, UniProt P28482); test: Functional assay; assay type: biochemical; settings: smilagenin 1 μM
# Procedure: as §2, §3
# BDNF = BDNF protein in culture medium of rat cortical neurones under basal conditions; assay type: cell-based; settings: 10 μM, day 8 to day 12, basal culture; control 3.66 ± 0.05
# Procedure: Rat cortical neurones were cultured by modification of a method previously described (Eckenstein and Sofroniew, Journal of Neuroscience, 1983, 3, pp. 2286-2291). On day 8, the culture medium was changed to a medium containing vehicle (DMSO, 0.5%) or smilagenin (10 μM). On day 12 the concentration of BDNF in the culture medium, was measured.
# BDNF mRNA = BDNF mRNA in rat cortical neurones pre-incubated 48 h then exposed to β-amyloid; assay type: cell-based; settings: 10 μM pre-incubation 48 h
# Procedure: Rat cortical neurones were cultured by modification of a method previously described (Eckenstein and Sofroniew, Journal of Neuroscience, 1983, 3, pp. 2286-2291). On day 8, the culture medium was changed to a medium containing vehicle (DMSO, 0.5%) or smilagenin (10 μM). On day 10, rat primary cortical neurones were exposed to β-amyloid (10 μg/ml) for up to 48 h at 37° C. and the level of BDNF mRNA in the cortical neurones was assessed by rt RT-PCR over the following 48 h.
# GDNF = GDNF in culture medium of rat dopaminergic neurones exposed to MPP+; assay type: cell-based; settings: 10 μM from day 6, MPP+ 2 μM day 8 for 48 h; MPP+ alone 2.7 ± 0.5
# Procedure: Rat dopaminergic neurones were prepared using a slightly modified previously described method (Brouard et al., Journal of Neuroscience, 1992, 12, pp. 1409-1415). On day 6 the culture medium was replaced with fresh medium or fresh medium containing smilagenin (10 μM) or vehicle (DMSO, 0.25%). On day 8, MPP^+ (2 μM) or vehicle (saline) was added and 48 h later dopaminergic neurones were stained and the concentration of GDNF in the culture medium, neuronal damage and neurite outgrowth were assessed.
smiles,measurement,setting,value
"C[C@H]1CC[C@@]2(OC1)O[C@H]1C[C@H]3[C@@H]4CC[C@@H]5C[C@@H](O)CC[C@]5(C)[C@H]4CC[C@]3(C)[C@H]1[C@@H]2C [Sarsasapogenin, sarsasapogenin]",Effect (%),Oestrogen,NS (NS = No significant response. Significance was taken as ≧30% stimulation or inhibition)
same,Effect (%),Progesterone,NS (NS = No significant response. Significance was taken as ≧30% stimulation or inhibition)
"C[C@@H]1CC[C@@]2(OC1)O[C@H]1C[C@H]3[C@@H]4CC[C@@H]5C[C@@H](O)CC[C@]5(C)[C@H]4CC[C@]3(C)[C@H]1[C@@H]2C [Smilagenin, smilagenin]",Effect (%),[1],NS (NS = No significant response. Significance was taken as ≧30% stimulation or inhibition)
same,Effect (%),[2],NS (NS = No significant response. Significance was taken as ≧30% stimulation or inhibition)
same,Effect (%),Functional assay,NS (NS = No significant response. Significance was taken as ≧30% stimulation or inhibition)
same,Effect (%),[3],NS (NS = No significant response. Significance was taken as ≧30% stimulation or inhibition)
same,Effect (%),[4],NS (NS = No significant response. Significance was taken as ≧30% stimulation or inhibition)
same,Effect (%),[5],NS (NS = No significant response. Significance was taken as ≧30% stimulation or inhibition)
same,Effect (%),[6],NS (NS = No significant response. Significance was taken as ≧30% stimulation or inhibition)
same,Effect (%),[7],NS (NS = No significant response. Significance was taken as ≧30% stimulation or inhibition)
same,Effect (%),[8],NS (NS = No significant response. Significance was taken as ≧30% stimulation or inhibition)
same,Effect (%),[9],NS (NS = No significant response. Significance was taken as ≧30% stimulation or inhibition)
same,Effect (%),[10],NS (NS = No significant response. Significance was taken as ≧30% stimulation or inhibition)
same,Effect (%),[11],NS (NS = No significant response. Significance was taken as ≧30% stimulation or inhibition)
same,Effect (%),[12],NS (NS = No significant response. Significance was taken as ≧30% stimulation or inhibition)
same,Effect (%),Aldose reductase,NS (NS = No significant response. Significance was taken as ≧30% stimulation or inhibition)
same,Effect (%),[13],NS (NS = No significant response. Significance was taken as ≧30% stimulation or inhibition)
same,Effect (%),[14],NS (NS = No significant response. Significance was taken as ≧30% stimulation or inhibition)
same,BDNF concentration,BDNF,3.67 ± 0.05 pg/mL
same,Relative amount of BDNF mRNA (% of control at 0 h),BDNF mRNA; β-amyloid 10 μg/ml exposure 6 h,108.0 ± 5.2 % of control at 0 h
same,Relative amount of BDNF mRNA (% of control at 0 h),BDNF mRNA; β-amyloid 10 μg/ml exposure 24 h,321.5 ± 54.2 % of control at 0 h
same,Relative amount of BDNF mRNA (% of control at 0 h),BDNF mRNA; β-amyloid 10 μg/ml exposure 48 h,334.6 ± 48.1 % of control at 0 h
same,GDNF concentration,GDNF,6.6 ± 0.7 pg/mL
